According to US20240174690A1, “ANNULATED 2-AMINO-3-CYANO THIOPHENES AND DERIVATIVES FOR THE TREATMENT OF CANCER” (BOEHRINGER INGELHEIM INTERNATIONAL GMBH, priority 2021, published 2024):
pIC50: −log10 of the molar value.

Experiments:
SAS cells = test: SAS CTG proliferation assay (120 h) (HNSCC, wt amplified); format: cell-based
Procedure: SAS CTG Proliferation Assay (120 h) (HNSCC, Wt Amplified)
(§1) SAS cells (JCRB0260) are dispensed into 384-well plates, flat and clear bottom (Greiner, PNr. 781091) at a density of 300 cells per well in 60 μL DMEM:F12 (Gibco 31330-038)+10% Fetal Calf Serum (HyClone, PNr.: SH30084.03) and incubated at 37° C. in a CO2 incubator overnight. The next day, compounds (10 mM stock in DMSO) are added with the ECHO acoustic liquid handler system (Beckman Coulter), including DMSO controls. Plates are incubated for 120 h, and cell viability is measured using CellTiter-Glo luminescent cell viability reagent (Promega product code G7570). Viability (stated as percent of control) is defined as relative luminescence units RLU of each well divided by the RLU of cells in DMSO controls. IC50 values are determined from viability measurements by non-linear regression using a four-parameter model.

[1] = Metabolic (microsomal) stability assay, human liver microsomes (HLM); format: in vitro ADME; settings: predicted clearance as percent of liver blood flow, 1 μM
Procedure: The metabolic degradation of the test compound is assayed at 37° C. with pooled liver microsomes (mouse (MLM), rat (RLM) or human (HLM)). The final incubation volume of 48 μL pertime point contains TRIS buffer (pH 7.5; 0.1 M), magnesium chloride (6.5 mM), microsomal protein (0.5 mg/mL for mouse/rat, 1 mg/mL for human specimens) and the test compound at a final concentration of 1 μM. Following a short preincubation period at 37° C., the reactions are initiated by addition of 12 μL beta-nicotinamide adenine dinucleotide phosphate, reduced form (NADPH, 10 mM) and terminated by transferring an aliquot into solvent after different time points (0, 5, 15, 30, 60 min). Additionally, the NADPH-independent degradation is monitored in incubations without NADPH, terminated at the last time point by addition of acetonitrile. The quenched incubations are pelleted by centrifugation (4,000 rpm, 15 min). An aliquot of the supernatant is assayed by LC-MS/MS to quantify the concentration of parent compound in the individual samples.
In vitro intrinsic clearance (CLint, in vitro) is calculated from the time course of the disappearance of the test drug during the microsomal incubation. Each plot is fitted to the first-order elimination rate constant as C(t)═C0*exp(−ke*t), where C(t) and C0 are the concentration of unchanged test drug at incubation time t and that at preincubation and ke is the disappearance rate constant of the unchanged drug. Subsequently, CLint in vitro (μL min^−1·amount protein) values are converted to predicted CLint,in vivo (mL min^−1 kg^−1) from incubation parameters according to the equation CLint, in vivo=CLint, in vitro×(incubation volume (ml)/amount protein (mg))×(amount protein (mg)/g liver tissue)×(liver weight/body wt.).
For better across species comparison the predicted clearance is expressed as percent of the liver blood flow [% QH] (mL min^−1·kg^−1) in the individual species. In general, high stability (corresponding to low % QH) of the compounds across species is desired.

[2] = tested on: KRAS G12C-dependent Ba/F3 cells; test: Ba/F3 proliferation assay, KRAS G12C; format: cell-based; settings: Mus musculus, BaF3, 72 h, AlamarBlue
Procedure: Plasmids containing KRASG12 mutants (i.e. […], G12C, G12V) are obtained from GeneScript. To generate KRASG12-dependent Ba/F3 models, Ba/F3 cells are transduced with retroviruses containing vectors that harbor KRASG12 isoforms. Platinum-E cells (Cell Biolabs) are used for retrovirus packaging. Retrovirus is added to Ba/F3 cells. To ensure infection, 4 μg/mL polybrene is added and cells are spinfected. […] Cells with an infection efficiency of 10% to 20% are further cultivated and puromycin selection with 1 μg/mL is initiated. As a control, parental Ba/F3 cells are used to show selection status. Selection is considered successful when parental Ba/F3 cells cultures died. To evaluate the transforming potential of KRASG12 mutations, the growth medium is no longer supplemented with IL-3. Ba/F3 cells harboring the empty vector are used as a control. Approximately ten days before conducting the experiments, puromycin is left out.
Compounds are added using an Access Labcyte Workstation with a Labcyte Echo 550 or 555 accoustic dispenser. All treatments are performed in technical duplicates. […] AlamarBlue™ (ThermoFisher), a viability stain, is added and fluorescence measured in the PerkinElmer Envision HTS Multilabel Reader. The raw data are imported into and analyzed with the Boehringer Ingelheim proprietary software MegaLab (curve fitting based on the program PRISM, GraphPad Inc.).

NCI-H2122 cells = test: NCI-H2122 CTG proliferation assay (120 h) (NSCLC, G12C); format: cell-based; settings: Homo sapiens
Procedure: NCI-H2122 CTG Proliferation Assay (120 h) (NSCLC, G12C)
The CTG assay is designed to measure quantitatively the proliferation of NCI-H2122 cells (ATCC CRL-5985), using the CellTiter Glow Assay Kit (Promega G7571). Cells are grown in RPMI medium (ATCC) supplemented with Fetal Calf Serum (Life Technologies, Gibco BRL, Cat. No. 10270-106). On “day 0” 200 NCI-H2122 cells are seeded in 60 μL RPMI ATCC+10% FCS+Penstrep in a black 384-well plate, flat and clear bottom (Greiner, PNr. 781091). Cells are then incubated in the plates at 37° C. in a CO2 incubator overnight. On day 1, compounds (10 mM stock in DMSO) are added with the ECHO acoustic liquid handler system (Beckman Coulter), including DMSO controls. Plates are incubated for 120 h, and cell viability is measured using CellTiter-Glo luminescent cell viability reagent (Promega product code G7570). Viability (stated as percent of control) is defined as relative luminescence units RLU of each well divided by the RLU of cells in DMSO controls. IC50 values are determined from viability measurements by non-linear regression using a four parameter model.

LOVO cells = test: LOVO CTG proliferation assay (120 h) (CRC, G13D); format: cell-based; settings: Homo sapiens, CTG 120 h
Procedure: LOVO CTG Proliferation Assay (120 h) (CRC, G13D)
as §1, with “LOVO cells (ATCC” for “SAS cells (JCRB0260)”, “LOVO cells (ATCC CCL-229) are dispensed” for “SAS cells (JCRB0260) are dispensed”, “density of 1000 cells per” for “density of 300 cells per”, “60 μL DMEM (Sigma D6429)+10% Fetal Calf” for “60 μL DMEM:F12 (Gibco 31330-038)+10% Fetal Calf”

SMILES	HLM QH [1] [%]	pIC50 [2]	pIC50 (NCI-H2122 cells)	pIC50 (LOVO cells)	pIC50 (SAS cells)
C[C@H](Oc1cc(N2CCNC3(CC3)C2)nc(-c2onc3c2CCC[C@@]32CCCc3sc(N)c(C#N)c32)n1)[C@@H]1CCCN1C [I-5]	<24	6.91	5.62	5.79	5.69
C[C@H](Oc1cc(N2C[C@H](C)N[C@@H](C)C2)nc(-c2onc3c2CCC[C@@]32CCCc3sc(N)c(C#N)c32)n1)[C@@H]1CCCN1C [I-6]	<24	6.60	5.47	5.91	5.46
C[C@H]1CN(C)CCCN1c1cc(N2CCN(C)CC2)nc(-c2onc3c2CCC[C@@]32CCCc3sc(N)c(C#N)c32)n1 [I-7]	<24	6.22	5.46	5.55	6.33
C[C@H](Oc1cc(N2C[C@H](C)NC3(CC3)C2)nc(-c2onc3c2CCC[C@@]32CCCc3sc(N)c(C#N)c32)n1)[C@@H]1CCCN1C [I-8]	<24	6.97	5.52	6.53	6.88
C[C@H](Oc1cc(N2CCN3CCC3C2)nc(-c2onc3c2CCC[C@@]32CCCc3sc(N)c(C#N)c32)n1)[C@@H]1CCCN1C (stereo partly drawn) [I-9]	<24	6.58	5.48	6.19	4.69
C[C@H](Oc1cc(N2CCNCC23CCOC3)nc(-c2onc3c2CCC[C@@]32CCCc3sc(N)c(C#N)c32)n1)[C@@H]1CCCN1C (stereo partly drawn) [I-10]	30	6.66			
C[C@H](Oc1cc(N2CC[C@H](N(C)C)C2)nc(-c2onc3c2CCC[C@@]32CCCc3sc(N)c(C#N)c32)n1)[C@@H]1CCCN1C [I-11]	<24	6.48	5.59	5.77	6.19

The next lines start with results.

HLM QH [1] [%]	pIC50 [2]	pIC50 (NCI-H2122 cells)	pIC50 (LOVO cells)	SMILES	pIC50 (SAS cells)
<24	6.48	5.55	6.19	C[C@H](Oc1cc(N2CC[C@H](N(C)C)C2)nc(-c2noc3c2CCC[C@@]32CCCc3sc(N)c(C#N)c32)n1)[C@@H]1CCCN1C [II-49]	5.93
52	6.57	5.57	5.79	C[C@H](Oc1cc(N2CCNC[C@]23CCOC3)nc(-c2noc3c2CCC[C@@]32CCCc3sc(N)c(C#N)c32)n1)[C@@H]1CCCN1C [II-50]	7.39
37	6.50	5.59	6.11	C[C@H](Oc1cc(N2CCNC[C@@]23CCOC3)nc(-c2noc3c2CCC[C@@]32CCCc3sc(N)c(C#N)c32)n1)[C@@H]1CCCN1C [II-51]	7.15
46	6.53	5.43	6.31	C[C@H](Oc1cc(-n2cc3c(n2)CCNC3)nc(-c2noc3c2CCC[C@@]32CCCc3sc(N)c(C#N)c32)n1)[C@@H]1CCCN1C [II-53]	5.77
28	7.13	5.75	6.27	C[C@H](Oc1cc(N2CCNC3(CC3)C2)nc(-c2noc3c2CCC[C@@]32CCCc3sc(N)c(C#N)c32)n1)[C@@H]1CCCN1C [II-54]	6.63
<24	6.53	5.31	5.96	C[C@H](Oc1cc(N2CCN(C)CC2)nc(-c2noc3c2CCC[C@@]32CCCc3sc(N)c(C#N)c32)n1)[C@@H]1CCCN1C [II-55]	6.01
<24	6.63	5.50	6.18	C[C@H](Oc1cc(N2C[C@H](C)N[C@@H](C)C2)nc(-c2noc3c2CCC[C@@]32CCCc3sc(N)c(C#N)c32)n1)[C@@H]1CCCN1C [II-56]	5.85
<24	7.42	6.04	6.30	C[C@H](Oc1cc(N2CCC[C@H](O)C2)nc(-c2noc3c2CCC[C@@]32CCCc3sc(N)c(C#N)c32)n1)[C@@H]1CCCN1C [II-57]	7.27
46	7.39	6.04	6.95	CO[C@@H]1C[C@@H]([C@H](C)Oc2cc(-n3ccnc3)nc(-c3noc4c3CCC[C@@]43CCCc4sc(N)c(C#N)c43)n2)N(C)C1 [II-58]	6.47
<24	7.51	5.87	7.14	C[C@H](Oc1cc(N2CCC[C@@H](O)C2)nc(-c2noc3c2CCC[C@@]32CCCc3sc(N)c(C#N)c32)n1)[C@@H]1CCCN1C [II-59]	7.51
<24	8.15			Cc1nc(-c2cc(O[C@@H](C)[C@@H]3CCCN3C)nc(-c3noc4c3CCC[C@@]43CCCc4sc(N)c(C#N)c43)n2)cs1 [II-103]	
<24	7.62			C[C@H](Oc1cc(-c2ccn3ncnc3c2)nc(-c2noc3c2CCC[C@@]32CCCc3sc(N)c(C#N)c32)n1)[C@@H]1CCCN1C [II-104]	6.94
	7.92	6.07	6.82	C[C@H](Oc1cc(-n2cncc3ccnc2-3)nc(-c2noc3c2CCC[C@@]32CCCc3sc(N)c(C#N)c32)n1)[C@@H]1CCCN1C [II-105]	7.26
<24	7.54			C[C@H](Oc1cc(-c2cn(C3CCOCC3)nn2)nc(-c2noc3c2CCC[C@@]32CCCc3sc(N)c(C#N)c32)n1)[C@@H]1CCCN1C [II-115]	
